Measured values: PubChem BioAssay AID222 (DTP/NCI, 2004)
Where “and” joins values, the source holds several entries; their conditions need not be identical. Equal values may be shown once. Toxic doses and inconclusive results are not listed. How the source made its calls: active means survival T/C of 150% or more; inactive means T/C below 125% in these data.

Tested on: C57BL/6 mice, intracerebral ependymoblastoma, median survival T/C
Assay: NCI In Vivo Anticancer Drug Screen. Data for tumor model Ependymoblastoma (intracerebral) in C57BL/6 mice
Settings: endpoint: median survival time, higher = longer survival
Method: The antitumor activity of compounds was measured in mice bearing transplantable tumors. Survival or tumor size were measured and the results are expressed as the measurement made in the treated group (T) divided by the measurement made in the vehicle treated control group (C). The tumor model used in this assay is Ependymoblastoma (intracerebral) in C57BL/6 mice

[1] = dose: 100.0 mg/kg/injection, schedule: Q01DX005 (ip), vehicle: saline
[2] = dose: 0.25 mg/kg/injection, schedule: Q01DX005 (ip), vehicle: saline

Measured: T/C

CCC1CC2CC(c3cc4c(cc3OC)N(C)C3C(O)(C(=O)OC)C(OC(C)=O)C5(CC)C=CCN6CCC43C65)c3[nH]c4ccccc4c3CCN(C1)C2 (configuration not stated)
inactive: dose: 0.05 mg/kg/injection, schedule: Q01DX005 (ip), vehicle: saline 108 % of control | dose: 0.1 mg/kg/injection, schedule: Q01DX005 (ip), vehicle: saline 112 % of control | dose: 0.2 mg/kg/injection, schedule: Q01DX005 (ip), vehicle: saline 97 % of control | dose: 0.4 mg/kg/injection, schedule: Q01DX005 (ip), vehicle: saline 119 % of control | dose: 0.8 mg/kg/injection, schedule: Q01DX005 (ip), vehicle: saline 107 % of control | dose: 3.2 mg/kg/injection, schedule: Q01DX005 (ip), vehicle: saline 96 % of control | dose: 6.4 mg/kg/injection, schedule: Q01DX005 (ip), vehicle: saline 105 % of control | dose: 12.8 mg/kg/injection, schedule: Q01DX005 (ip), vehicle: saline 102 % of control

COc1ccc2c(c1O)-c1cc(O)cc3c1C(C2)N(CCCl)CC3 (configuration not stated)
inactive: dose: 4.0 mg/kg/injection, schedule: Q01DX005 (ip), vehicle: saline with Tween-80 95 % of control and 98 % of control | dose: 8.0 mg/kg/injection, schedule: Q01DX005 (ip), vehicle: saline with Tween-80 98 % of control | dose: 16.0 mg/kg/injection, schedule: Q01DX005 (ip), vehicle: saline with Tween-80 94 % of control and 100 % of control | dose: 32.0 mg/kg/injection, schedule: Q01DX005 (ip), vehicle: saline with Tween-80 110 % of control

CNc1nc(N(C)C)nc(N(C)C)n1
inactive: dose: 3.12 mg/kg/injection, schedule: Q01DX005 (ip), vehicle: saline 103 % of control | dose: 6.25 mg/kg/injection, schedule: Q01DX005 (ip), vehicle: saline 96 % of control | dose: 12.5 mg/kg/injection, schedule: Q01DX005 (ip), vehicle: saline 97 % of control | dose: 25.0 mg/kg/injection, schedule: Q01DX005 (ip), vehicle: saline 108 % of control | dose: 50.0 mg/kg/injection, schedule: Q01DX005 (ip), vehicle: saline 100 % of control | [1] 113 % of control

O=C1N(Cl)C(=O)C(c2ccc(Cl)cc2)(c2ccc(Cl)cc2)N1Cl
inactive: dose: 1.56 mg/kg/injection, schedule: Q01DX005 (ip), vehicle: Klucel (hydroxypropylcellulose) (HPC) 105 % of control | dose: 3.12 mg/kg/injection, schedule: Q01DX005 (ip), vehicle: Klucel (hydroxypropylcellulose) (HPC) 110 % of control | dose: 6.25 mg/kg/injection, schedule: Q01DX005 (ip), vehicle: Klucel (hydroxypropylcellulose) (HPC) 99 % of control | dose: 12.5 mg/kg/injection, schedule: Q01DX005 (ip), vehicle: Klucel (hydroxypropylcellulose) (HPC) 112 % of control | dose: 25.0 mg/kg/injection, schedule: Q01DX005 (ip), vehicle: Klucel (hydroxypropylcellulose) (HPC) 110 % of control

COc1cc(NS(C)(=O)=O)ccc1Nc1c2ccccc2nc2ccccc12
inactive: dose: 1.0 mg/kg/injection, schedule: Q01DX005 (ip), vehicle: Klucel (hydroxypropylcellulose) (HPC) 93 % of control and 108 % of control | dose: 1.0 mg/kg/injection, schedule: Q01DX005 (ip), vehicle: saline + alcohol 93 % of control and 108 % of control and 116 % of control | dose: 1.0 mg/kg/injection, schedule: Q01DX005 (ip), vehicle: water 89 % of control and 110 % of control | dose: 2.0 mg/kg/injection, schedule: Q01DX005 (ip), vehicle: Klucel (hydroxypropylcellulose) (HPC) 98 % of control and 104 % of control | dose: 2.0 mg/kg/injection, schedule: Q01DX005 (ip), vehicle: saline + alcohol 94 % of control and 109 % of control and 112 % of control | dose: 2.0 mg/kg/injection, schedule: Q01DX005 (ip), vehicle: water 105 % of control and 108 % of control | dose: 4.0 mg/kg/injection, schedule: Q01DX005 (ip), vehicle: Klucel (hydroxypropylcellulose) (HPC) 112 % of control | dose: 4.0 mg/kg/injection, schedule: Q01DX005 (ip), vehicle: saline + alcohol 90 % of control and 98 % of control | dose: 4.0 mg/kg/injection, schedule: Q01DX005 (ip), vehicle: water 103 % of control and 107 % of control | dose: 4.0 mg/kg/injection, schedule: Q#A X002 (ip), vehicle: Klucel (hydroxypropylcellulose) (HPC) 89 % of control and 105 % of control | dose: 8.0 mg/kg/injection, schedule: Q01DX001 (ip), vehicle: Klucel (hydroxypropylcellulose) (HPC) 90 % of control and 96 % of control and 106 % of control | dose: 8.0 mg/kg/injection, schedule: Q01DX005 (ip), vehicle: Klucel (hydroxypropylcellulose) (HPC) 116 % of control | dose: 8.0 mg/kg/injection, schedule: Q#A X002 (ip), vehicle: Klucel (hydroxypropylcellulose) (HPC) 91 % of control and 92 % of control | dose: 16.0 mg/kg/injection, schedule: Q01DX001 (ip), vehicle: Klucel (hydroxypropylcellulose) (HPC) 104 % of control (2×) and 107 % of control | dose: 16.0 mg/kg/injection, schedule: Q01DX001 (oral), vehicle: Klucel (hydroxypropylcellulose) (HPC) 99 % of control and 113 % of control | dose: 16.0 mg/kg/injection, schedule: Q#A X002 (ip), vehicle: Klucel (hydroxypropylcellulose) (HPC) 90 % of control | dose: 32.0 mg/kg/injection, schedule: Q01DX001 (ip), vehicle: Klucel (hydroxypropylcellulose) (HPC) 89 % of control and 101 % of control and 107 % of control | dose: 32.0 mg/kg/injection, schedule: Q01DX001 (oral), vehicle: Klucel (hydroxypropylcellulose) (HPC) 108 % of control | dose: 32.0 mg/kg/injection, schedule: Q#A X002 (ip), vehicle: Klucel (hydroxypropylcellulose) (HPC) 89 % of control and 93 % of control | dose: 64.0 mg/kg/injection, schedule: Q01DX001 (ip), vehicle: Klucel (hydroxypropylcellulose) (HPC) 91 % of control | dose: 64.0 mg/kg/injection, schedule: Q01DX001 (oral), vehicle: Klucel (hydroxypropylcellulose) (HPC) 94 % of control and 97 % of control | dose: 64.0 mg/kg/injection, schedule: Q#A X002 (ip), vehicle: Klucel (hydroxypropylcellulose) (HPC) 89 % of control and 91 % of control | dose: 128.0 mg/kg/injection, schedule: Q01DX001 (oral), vehicle: Klucel (hydroxypropylcellulose) (HPC) 90 % of control and 102 % of control | dose: 256.0 mg/kg/injection, schedule: Q01DX001 (oral), vehicle: Klucel (hydroxypropylcellulose) (HPC) 91 % of control

COc1ccc(CC2C(=O)NC(C)C(=O)N(C)C3C(=O)N(C)C(Cc4ccc(O)c(c4)Oc4ccc(cc4)C3O)C(=O)NC(C)C(=O)NC(C)C(=O)N2C)cc1 (configuration not stated)
inactive: dose: 0.13 mg/kg/injection, schedule: Q01DX005 (ip), vehicle: saline 103 % of control | [2] 98 % of control | dose: 0.5 mg/kg/injection, schedule: Q01DX005 (ip), vehicle: saline 98 % of control | dose: 1.0 mg/kg/injection, schedule: Q01DX005 (ip), vehicle: saline 95 % of control

OC(CCl)CN1CC[N+]2(CC1)CC[N+]1(CCN(CC(O)CCl)CC1)CC2 (configuration not stated)
inactive: dose: 40.0 mg/kg/injection, schedule: Q01DX005 (ip), vehicle: saline 109 % of control and 117 % of control

C1CN1c1nc(N2CC2)nc(N2CC2)n1
inactive: dose: 0.12 mg/kg/injection, schedule: Q01DX005 (ip), vehicle: saline 111 % of control | [2] 124 % of control

Nc1ncnc2c1ncn2C1OC(COP(=O)(O)O)C(O)C1O (configuration not stated)
inactive: [1] 104 % of control | dose: 200.0 mg/kg/injection, schedule: Q01DX005 (ip), vehicle: saline 100 % of control | dose: 800.0 mg/kg/injection, schedule: Q01DX005 (ip), vehicle: saline 119 % of control
